Reference: patent US20080187492A1, “Drosophila Models For Diseases Affecting Learning and Memory” (priority 2004, published 2008)

Experiments:
[1] = test system: Drosophila expressing mutant huntington protein in the MBs; test: Naive courtship and short-term memory in Drosophila expressing mutant huntington in the MBs; type: in vivo; settings: 5 day old flies; p<0.05
Excerpt: Both HDAC inhibition and CBP overexpression should in theory promote an increase CREB mediated gene transcription. […] Since we knew that we could use a PDE-4 inhibitor or mGluR antagonists or lithium to increase cAMP levels thereby promoting CREB mediated transcription, we decided to see if these compounds could restore the memory deficit in Drosophila expressing mutant huntington in the MBs.

[2] = test system: flies heterozygous for the Drosophila presenilin gene; test: Short term memory in presenilin mutant Drosophila model of Alzheimer's disease; type: in vivo; settings: 30 days of age; data not shown
Excerpt: We have also discovered that there is a deficit in long term memory in these flies as young adults, and there is also an age dependent deficit in these flies in short term memory at 30 days of age (data not shown). This age dependent deficit in short term memory is rescued by treatment with LY341495. Additionally, this age dependent deficit is rescued by lowering IP3R expression by making these presenilin mutant lines heterozygous for an IP3R deletion (data not shown).

[3] = test system: Rescue (dFMR1-3+wild type rescue fragment) flies; test: Quality of naive courtship (progress to later courtship steps), Rescue flies; type: in vivo, Drosophila melanogaster; settings: 5 day old
Experimental: In order to determine if MPEP can get into the Drosophila central nervous system (CNS) through feeding behavior, we mixed MPEP into the food at a concentration of 1,000 μg/ml (433.0 μM). Males were raised on CT food and then placed on either CT or M food. Naive males were placed in the training chamber for one hour with no female, and then placed with a virgin target female for a ten-minute interval. The naive courtship behavior was reduced by high MPEP concentration in Rescue (p<0.0001) and FS (p<0.0005) lines, and it was depressed to similar levels by high MPEP treatment in the Rescue and FS groups (FIG. 2A). […] FIG. 2B dissects the steps involved in naive courtship behavior. […] Lowering the dose of MPEP and examining naive courtship. We next decided to try a lower dose of MPEP to 200 μg/ml (86.6 μM) mixed into the food of the Drosophila. In these experiments flies were placed on either CT or M food in the larval stage and then placed on either CT of M food within four hours of eclosion. […] Therefore giving this drug in adulthood only is effective in enhancing naive courtship behavior. […] Further analysis of the quality of courtship that was performed by naive males was assessed by binning the number of males to advance to a particular phase of courtship for each genotype and pharmacologic treatment (FIG. 3B).

[4] = test system: Rescue (dFMR1-3+wild type rescue fragment) flies; test: Conditioned courtship: learning during training, Rescue flies; type: in vivo, Drosophila melanogaster; settings: MPEP 200 μg/ml in development, adulthood or both
Excerpt: The role of dFMR1 in learning during training and immediate recall. The flies used were w1118 (the background stock from which the mutation was derived), dFMR1-3 (the mutation lacking dFMR1 expression), Rescue (dFMR1-3+wild type rescue fragment) and FS (frame shift, dFMR1-3+frame shifted rescue fragment) all from Dockendorff et al, 2002. To assess learning during training male flies are placed in a training chamber with a previously mated female for one hour. The amount of time the male spent courting in the initial ten-minute interval was compared to the amount of time the male spent courting the female target in the final ten-minute interval (FIG. 1). […] It is important to note that the level of courtship behavior towards the previously mated female is similar between the two mutant groups and the w1118 and Rescue groups. […] This is important to note, because without actively courting, the male fly cannot be trained (Tompkins et al. 1982; 1983).
Learning during training. In order to assess learning during training, the male flies were placed in a training chamber with a previously mated female for one hour. The amount of time the male spent courting in the first ten-minute interval was compared to the amount of time the male spent courting the female target in the last ten-minute interval (FIG. 4A).
Behavioral Training and Testing. […]

[5] = test system: flies heterozygous for the Drosophila presenilin gene; test: Learning during training in Drosophila model of Alzheimer's disease with reduced presenilin; type: in vivo; set-up: age dependent impairment in learning during training: dose or concentration left out as unconfirmed
Excerpt: FIG. 10 is a graph showing the effect of MPEP on learning during training in a Drosophila model of Alzheimer's disease expressing reduced amounts of presenilin. All flies have reduced presenilin level. Black bars are 5 day old flies raised on kept on control food (N=18) which display learning during training (p<0.05). […] This impairment is prevented by treatment with MPEP.
Using methods similar to those described in Examples 1 and 2, we evaluated the effect of MPEP on various aspects of learning and memory in a Drosophila model of Alzheimer's disease with reduced expression of presenilin.
Flies in all three groups are heterozygous for the Drosophila presenilin gene. Each group has one wild type presenilin gene and one null presenilin gene, resulting from a deletion at the presenilin locus or a mutation at the presenilin locus. Learning during training was assayed in flies kept on control food until tested at five days of age, kept on control food until tested at 30 days of age or kept on control food for the first five days after eclosion then switched to food containing 200 μg/ml of MPEP until being moved back to control food the day before being tested at 30 days of age. […] This age-dependent deficit in learning during training is apparent in ten mutant presenilin Drosophila lines evaluated. In flies treated with MPEP, learning during training was restored at 30 days of age (p<0.05).

[6] = test system: FS (dFMR1-3+frame shifted rescue fragment) flies; test: Quality of naive courtship (progress to later courtship steps), FS flies; type: in vivo, Drosophila melanogaster
Experimental: In order to determine if MPEP can get into the Drosophila central nervous system (CNS) through feeding behavior, we mixed MPEP into the food at a concentration of 1,000 μg/ml (433.0 μM). Males were raised on CT food and then placed on either CT or M food. Naive males were placed in the training chamber for one hour with no female, and then placed with a virgin target female for a ten-minute interval. The naive courtship behavior was reduced by high MPEP concentration in Rescue (p<0.0001) and FS (p<0.0005) lines, and it was depressed to similar levels by high MPEP treatment in the Rescue and FS groups (FIG. 2A). […] FIG. 2B dissects the steps involved in naive courtship behavior. […] Lowering the dose of MPEP and examining naive courtship. We next decided to try a lower dose of MPEP to 200 μg/ml (86.6 μM) mixed into the food of the Drosophila. In these experiments flies were placed on either CT or M food in the larval stage and then placed on either CT of M food within four hours of eclosion. […] Therefore giving this drug in adulthood only is effective in enhancing naive courtship behavior. […] The MPEP in development can rescue the naive courtship phenotype regardless of whether or not the flies receive it as adults. Further analysis of the quality of courtship that was performed by naive males was assessed by binning the number of males to advance to a particular phase of courtship for each genotype and pharmacologic treatment (FIG. 3B).

N[C@](CC1c2ccccc2Oc2ccccc21)(C(=O)O)[C@H]1C[C@@H]1C(=O)O [LY341495, (2S)-2-amino-2-[(1S,2S)-2-carboxycycloprop-1-yl]-3-(xanth-9-yl) propionic acid]
short-term memory [1]: restored short-term memory
age dependent deficit in short term memory [2]: rescued

Cc1cccc(C#Cc2ccccc2)n1 [MPEP, 2-methyl-6-(phenylethynyl)pyridine]
quality of naive courtship ([3]; MPEP 200 μg/ml in adulthood only (CT-M)): progressed to later phases of courtship to similar levels as all other groups
steps involved in naive courtship behavior ([3]; MPEP 1,000 μg/ml in adulthood, relative to CT-CT Rescue): failed to progress to later steps in courtship behavior
learning during training (initial vs final courtship levels) ([4]; 20-day-old): significant depression from the initial to final intervals
learning during training ([4]; 5 day old): does not adversely affect learning during training
age dependent impairment in learning during training ([5]; 30 day old, food supplemented MPEP from day 5): prevented
learning during training ([5]; 30 days of age, food containing 200 μg/ml of MPEP from day 5, p<0.05): restored
quality of naive courtship ([6]; 20-day-old, MPEP (86.6 μM)): in adulthood, but not in development alone, MPEP treatment can affect the quality of naive courtship behavior
quality of naive courtship ([6]; 5 day old, MPEP 200 μg/ml in development or adulthood): can affect the quality of naive courtship behavior
steps involved in naive courtship behavior ([6]; 5 day old, MPEP 1,000 μg/ml in adulthood, relative to CT-CT Rescue): failed to progress to later steps in courtship behavior
